Measurements as given in paper PMC9743148 (Annals of oncology : official journal of the European …, 2020).

Test system: patients with advanced solid tumors
Assay: Treatment-emergent adverse events
Format: in vivo, human
Conditions: Combined q.d. cohorts (n = 44)

C=CC(=O)N1CC[C@H](n2nc(C#Cc3cc(OC)cc(OC)c3)c3c(N)ncnc32)C1 [futibatinib]
5 (11) n (%): AST increased TEAE, Grade 2 | Any TEAE, Grade 1 | Back pain TEAE, Any grade | Cough TEAE, Any grade | Cough TEAE, Grade 1 | Decreased appetite TEAE, Grade 1 | Diarrhea TEAE, Grade 2 | Dry eye TEAE, Any grade
1 (2) n (%): Abdominal pain TEAE, Grade 1 | Abdominal pain TEAE, Grade 3 | Anemia TEAE, Grade 1 | Any treatment-related AE, Grade 4 | Constipation TEAE, Grade 3 | Diarrhea TEAE, Grade 3 | Dose reduction because of TEAE, Grade 2 | Dose reduction because of TEAE, Grade 4 | Dosing delay/interruption because of TEAE, Grade 1 | Dry eye TEAE, Grade 2 | Dry mouth TEAE, Grade 2
16 (36) n (%): Any treatment-related AE, Grade 3 | Dosing delay/interruption because of TEAE, Grade 3
13 (30) n (%): Any treatment-related AE, Grade 1 | Constipation TEAE, Grade 1
15 (34) n (%): Diarrhea TEAE, Any grade
3 (7) n (%): ALT increased TEAE, Grade 3 | Any TEAE, Grade 4 | Asthenia TEAE, Grade 1 | Back pain TEAE, Grade 1
21 (48) n (%): Any TEAE, Grade 3
4 (9) n (%): ALT increased TEAE, Grade 1 | ALT increased TEAE, Grade 2 | AST increased TEAE, Grade 1 | Abdominal pain TEAE, Grade 2 | Constipation TEAE, Grade 2 | Dry eye TEAE, Grade 1
10 (23) n (%): Dry mouth TEAE, Grade 1
44 (100) n (%): Any TEAE, Any grade
6 (14) n (%): Abdominal pain TEAE, Any grade | Alopecia TEAE, Any grade | Alopecia TEAE, Grade 1 | Anemia TEAE, Grade 2 | Asthenia TEAE, Grade 2 | Dose reduction because of TEAE, Grade 3
26 (59) n (%): Dosing delay/interruption because of TEAE, Any grade
8 (18) n (%): Dose reduction because of TEAE, Any grade
18 (41) n (%): Constipation TEAE, Any grade
2 (5) n (%): AST increased TEAE, Grade 3 | Anemia TEAE, Grade 3 | Back pain TEAE, Grade 2 | Decreased appetite TEAE, Grade 2
9 (20) n (%): Anemia TEAE, Any grade | Asthenia TEAE, Any grade | Diarrhea TEAE, Grade 1 | Dosing delay/interruption because of TEAE, Grade 2
11 (25) n (%): ALT increased TEAE, Any grade | AST increased TEAE, Any grade | Any TEAE, Grade 2 | Any treatment-related AE, Grade 2 | Dry mouth TEAE, Any grade
7 (16) n (%): Decreased appetite TEAE, Any grade
41 (93) n (%): Any treatment-related AE, Any grade
0 (0) n (%): ALT increased TEAE, Grade 4 | AST increased TEAE, Grade 4 | Abdominal pain TEAE, Grade 4 | Alopecia TEAE, Grade 2 | Alopecia TEAE, Grade 3 | Alopecia TEAE, Grade 4 | Anemia TEAE, Grade 4 | Asthenia TEAE, Grade 3 | Asthenia TEAE, Grade 4 | Back pain TEAE, Grade 3 | Back pain TEAE, Grade 4 | Constipation TEAE, Grade 4 | Cough TEAE, Grade 2 | Cough TEAE, Grade 3 | Cough TEAE, Grade 4 | Decreased appetite TEAE, Grade 3 | Decreased appetite TEAE, Grade 4 | Diarrhea TEAE, Grade 4 | Dose reduction because of TEAE, Grade 1 | Dosing delay/interruption because of TEAE, Grade 4 | Dry eye TEAE, Grade 3 | Dry eye TEAE, Grade 4
